Laboratory results taken from ChEMBL document CHEMBL1201862, “PubChem BioAssay data set” (2004).
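Test compounds were applied to cells in 96-well plates for 48 hours at 5 doses. GI50 marks 50% less growth.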 The source made the active and inactive calls. Rule as the data show it: active = GI50 up to about 1.1 µM and inactive = higher. *1 amine or outer side, *2 acyl side, *3 side chain or, on linkers, in order; H or OH if unused. Where a SMILES comes first, the peptide text is derived from it. Square brackets hold non-standard residues; d marks the D form. Bridges are numbered along the chain shown (N, C = ends). Roman numbers before positions name the chains, in order. Peptide text beside a SMILES is read from it. [ ]: non-standard residue; d: D form. * marks the point of attachment. ξ: configuration not given here. Actinocin(9to1) = Cc1c2oc3c(C)ccc(C(=O)[*:1])c3nc-2c(C(=O)[*:2])c(N)c1=O; NMeV = CN[CH](C(=O)O)C(C)C; ξD = NC(CC(=O)O)C(=O)O; Ac3c = NC1(C(=O)O)CC1; Boc = CC(C)(C)OC(=O)*; OtBu = CC(C)(C)O*; Sar = CNCC(=O)O

Legend:
Assay in all cases: growth of human tumour cells (NCI), 48 h
SK-MEL-2 = system: SK-MEL-2
RPMI-8226 = system: RPMI-8226
OVCAR-3 = system: OVCAR-3
SW-620 = system: SW-620
OVCAR-8 = system: OVCAR-8
SK-MEL-5 = system: SK-MEL-5
SK-OV-3 = system: SK-OV-3
UACC-257 = system: UACC-257
SNB-75 = system: SNB-75
NCI-H522 = system: NCI-H522
K562 = system: K562
UACC-62 = system: UACC-62
HOP-62 = system: HOP-62
MDA-MB-231 = system: MDA-MB-231
786-0 = system: 786-0
ACHN = system: ACHN
TK-10 = system: TK-10
KM12 = system: KM12
HCT-15 = system: HCT-15

SMILES | GI50 (SK-MEL-2) | GI50 (RPMI-8226) | GI50 (OVCAR-3) | GI50 (SW-620) | GI50 (OVCAR-8) | GI50 (SK-MEL-5) | GI50 (SK-OV-3) | GI50 (UACC-257) | GI50 (SNB-75) | GI50 (NCI-H522) | GI50 (K562) | GI50 (UACC-62) | GI50 (HOP-62) | GI50 (MDA-MB-231) | GI50 (786-0) | GI50 (ACHN) | GI50 (TK-10) | GI50 (KM12) | GI50 (HCT-15) [µM]
CCCCCCCCCCCCCCCCCCNc1ccn(C2OC(COP(=O)(O)OCC3OC(n4cc(C)c(=O)[nH]c4=O)CC3N=[N+]=[N-])C(O)C2O)c(=O)n1 (stereo unspecified) | 22.8 µM (inactive) | 11.8 µM (inactive) | 36.9 µM (inactive) | 22.5 µM (inactive) | 21.8 µM (inactive) | 22.8 µM (inactive) | 18.9 µM (inactive) | 25.4 µM (inactive) | 25.8 µM (inactive) | 13.3 µM (inactive) | 18.7 µM (inactive) | 19.1 µM (inactive) | 23.2 µM (inactive) | 22.1 µM (inactive) | 29.5 µM (inactive) | 54 µM (inactive) | 16.8 µM (inactive) | 20.3 µM (inactive) | 18.8
NC(=S)N/N=C\CC(O)(C(F)(F)F)C(F)(F)F | > 10 µM (inactive) | > 10 µM (inactive) | > 10 µM (inactive) | > 10 µM (inactive) | > 10 µM (inactive) | > 10 µM (inactive) | > 10 µM (inactive) | > 10 µM (inactive) | > 10 µM (inactive) | > 10 µM (inactive) | > 10 µM (inactive) | > 10 µM (inactive) | > 10 µM (inactive) | > 10 µM (inactive) | > 10 µM (inactive) | > 10 µM (inactive) | > 10 µM (inactive) | > 10 µM (inactive) | > 10
CN(CCC(=O)O)S(=O)(=O)c1ccccc1 | > 100 µM (inactive) | > 100 µM (inactive) | > 100 µM (inactive) | > 100 µM (inactive) | > 100 µM (inactive) | > 100 µM (inactive) | > 100 µM (inactive) | > 100 µM (inactive) | 80.2 µM (inactive) | > 100 µM (inactive) | > 100 µM (inactive) | > 100 µM (inactive) | > 100 µM (inactive) | > 100 µM (inactive) | > 100 µM (inactive) | > 100 µM (inactive) | > 100 µM (inactive) | > 100 µM (inactive) | > 100
Cc1ccc(S(=O)(=O)n2cncc2CO)cc1 | > 100 µM (inactive) | > 100 µM (inactive) | > 100 µM (inactive) | > 100 µM (inactive) | > 100 µM (inactive) | > 100 µM (inactive) | > 100 µM (inactive) | > 100 µM (inactive) | > 100 µM (inactive) | > 100 µM (inactive) | > 100 µM (inactive) | > 100 µM (inactive) | > 100 µM (inactive) | > 100 µM (inactive) | > 100 µM (inactive) | > 100 µM (inactive) | > 100 µM (inactive) | > 100 µM (inactive) | > 100
CC(C#N)N(CCc1ccccc1)C(=O)c1ccccc1 (stereo unspecified) | > 100 µM (inactive) | > 100 µM (inactive) | > 100 µM (inactive) | > 100 µM (inactive) | > 100 µM (inactive) | > 100 µM (inactive) | > 100 µM (inactive) | > 100 µM (inactive) | 27.4 µM (inactive) | > 100 µM (inactive) | > 100 µM (inactive) | > 100 µM (inactive) | > 100 µM (inactive) | > 100 µM (inactive) | > 100 µM (inactive) | > 100 µM (inactive) | > 100 µM (inactive) | > 100 µM (inactive) | > 100
Nc1ncc2c(n1)-c1ccccc1OC2N1CCCC1 (stereo unspecified) | > 100 µM (inactive) | > 100 µM (inactive) | > 100 µM (inactive) | > 100 µM (inactive) | > 100 µM (inactive) | > 100 µM (inactive) | > 100 µM (inactive) | > 100 µM (inactive) | 29 µM (inactive) | > 100 µM (inactive) | > 100 µM (inactive) | > 100 µM (inactive) | > 100 µM (inactive) | > 100 µM (inactive) | > 100 µM (inactive) | > 100 µM (inactive) | > 100 µM (inactive) | > 100 µM (inactive) | > 100
NC(=S)N/N=C1/CCCC2CCCC[C@@H]12 (stereo partly specified) | > 100 µM (inactive) | > 100 µM (inactive) | > 100 µM (inactive) | > 100 µM (inactive) | > 100 µM (inactive) | 97.3 µM (inactive) | > 100 µM (inactive) | > 100 µM (inactive) | > 100 µM (inactive) | 80.4 µM (inactive) | > 100 µM (inactive) | > 100 µM (inactive) | > 100 µM (inactive) | > 100 µM (inactive) | > 100 µM (inactive) | > 100 µM (inactive) | > 100 µM (inactive) | > 100 µM (inactive) | > 100
C=C1c2nc3ccccc3n2C=C(c2ccccc2)N1c1ccc([N+](=O)[O-])cc1 | 17.7 µM (inactive) | 8.81 µM (inactive) | 7.06 µM (inactive) | 14.4 µM (inactive) | 4.49 µM (inactive) | 4.02 µM (inactive) | 1.79 µM (inactive) | 15.3 µM (inactive) | 3.15 µM (inactive) | 3.67 µM (inactive) | 7.35 µM (inactive) | 7.26 µM (inactive) | 4.92 µM (inactive) | 2.39 µM (inactive) | 0.855 µM (active) | 1.67 µM (inactive) | 4.32 µM (inactive) | 4.14 µM (inactive) | 5.75
c1ccc(/N=C2\c3ccccc3CN2c2ccccn2)nc1 | > 100 µM (inactive) | 78 µM (inactive) | > 100 µM (inactive) | > 100 µM (inactive) | > 100 µM (inactive) | > 100 µM (inactive) | > 100 µM (inactive) | > 100 µM (inactive) | 94.8 µM (inactive) | 61.7 µM (inactive) | 65 µM (inactive) | > 100 µM (inactive) | > 100 µM (inactive) | > 100 µM (inactive) | > 100 µM (inactive) | > 100 µM (inactive) | > 100 µM (inactive) | > 100 µM (inactive) | > 100
NC1CCCCC1.O=P(O)(O)C(O)/C=C/c1ccccc1 (stereo unspecified) | > 100 µM (inactive) | > 100 µM (inactive) | > 100 µM (inactive) | > 100 µM (inactive) | > 100 µM (inactive) | > 100 µM (inactive) | > 100 µM (inactive) | > 100 µM (inactive) | > 100 µM (inactive) | > 100 µM (inactive) | > 100 µM (inactive) | > 100 µM (inactive) | > 100 µM (inactive) | > 100 µM (inactive) | > 100 µM (inactive) | > 100 µM (inactive) | > 100 µM (inactive) | > 100 µM (inactive) | > 100
Cc1c2oc3c(C)ccc(C(=O)NC4C(=O)NC(Cc5ccccc5)C(=O)N5CCCC5C(=O)N(C)CC(=O)N(C)C(C(C)C)C(=O)OC4C)c3nc-2c(C(=O)NC2C(=O)NC(Cc3ccccc3)C(=O)N3CCCC3C(=O)N(C)CC(=O)N(C)C(C(C)C)C(=O)OC2C)c(N)c1=O (stereo unspecified) (I: TFP[Sar][NMeV] / II: TFP[Sar][NMeV]; ester I:1-I:C, II:1-II:C; linker I:N-II:N via Actinocin(9to1); configuration not given here) | < 0.001 µM (active) | < 0.001 µM (active) | < 0.001 µM (active) | < 0.001 µM (active) | < 0.001 µM (active) | < 0.001 µM (active) | < 0.001 µM (active) | < 0.001 µM (active) | 0.00577 µM (active) | < 0.001 µM (active) | < 0.001 µM (active) | < 0.001 µM (active) | 0.0119 µM (active) | 0.022 µM (active) | < 0.001 µM (active) | < 0.001 µM (active) | 0.021 µM (active) | < 0.001 µM (active) | 0.0296
Cn1c2ccccc2c2c3c(c4c5ccccc5n(C5OC(CO)C(O)C(O)C5O)c4c21)C(=O)OC3=O (stereo unspecified) | > 100 µM (inactive) | > 100 µM (inactive) | > 100 µM (inactive) | > 100 µM (inactive) | > 100 µM (inactive) | > 100 µM (inactive) | > 100 µM (inactive) | > 100 µM (inactive) | 87.3 µM (inactive) | > 100 µM (inactive) | > 100 µM (inactive) | > 100 µM (inactive) | > 100 µM (inactive) | > 100 µM (inactive) | > 100 µM (inactive) | > 100 µM (inactive) | > 100 µM (inactive) | > 100 µM (inactive) | > 100
COC(=O)C1(NC(=O)C(CC(=O)OC(C)(C)C)NC(=O)OC(C)(C)C)CC1 (stereo unspecified) (Boc-[ξD](OtBu)-[Ac3c]-OMe) | > 100 µM (inactive) | > 100 µM (inactive) | > 100 µM (inactive) | > 100 µM (inactive) | > 100 µM (inactive) | > 100 µM (inactive) | 7.87 µM (inactive) | > 100 µM (inactive) | > 100 µM (inactive) | > 100 µM (inactive) | > 100 µM (inactive) | 1.19 µM (inactive) | > 100 µM (inactive) | > 100 µM (inactive) | > 100 µM (inactive) | > 100 µM (inactive) | > 100 µM (inactive) | > 100 µM (inactive) | > 100
CCCCC1(N=[N+]=[N-])C(=O)C2C=CC=C3c4ccccc4N(C1=O)C32 (stereo unspecified) | 11 µM (inactive) | 17.7 µM (inactive) | 21.6 µM (inactive) | 20.2 µM (inactive) | 20.1 µM (inactive) | 16.4 µM (inactive) | 25.8 µM (inactive) | 18.4 µM (inactive) | 11.6 µM (inactive) | 13.6 µM (inactive) | 17.3 µM (inactive) | 23.1 µM (inactive) | 27.1 µM (inactive) | 23.6 µM (inactive) | 22 µM (inactive) | 17.5 µM (inactive) | 16.4 µM (inactive) | 24.8 µM (inactive) | 17.2
